Here are results for 41 compounds from patent US9981909B2 (Janssen Pharmaceutica NV, priority 2008, dated 2018).

A word on the pKi: it is the negative decadic logarithm of the Ki, by convention in mol/L. A higher pKi goes with a small Ki.

pKi: −log10 of the molar value. Where a name gives a salt, the structure may show the parent alone.

Chain of rat 5-HT7 receptor (P32305 1-435): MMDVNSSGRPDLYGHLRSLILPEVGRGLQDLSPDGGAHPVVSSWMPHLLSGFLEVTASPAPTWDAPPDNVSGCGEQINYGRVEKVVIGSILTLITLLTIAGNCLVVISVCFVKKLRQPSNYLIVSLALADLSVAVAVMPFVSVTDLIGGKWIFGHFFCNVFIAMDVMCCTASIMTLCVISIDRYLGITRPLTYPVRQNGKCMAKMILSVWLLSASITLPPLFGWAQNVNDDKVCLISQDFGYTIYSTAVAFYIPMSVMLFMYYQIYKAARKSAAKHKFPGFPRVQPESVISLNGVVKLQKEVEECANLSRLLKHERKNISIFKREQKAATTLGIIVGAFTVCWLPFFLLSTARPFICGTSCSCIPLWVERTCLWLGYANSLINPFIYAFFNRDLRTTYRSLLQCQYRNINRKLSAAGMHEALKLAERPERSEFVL

For one test, the target named is rat 5-HT7 receptor (Rattus norvegicus (Rat), UniProt P32305). In words: r5-HT7 binding assay, competitive radioligand binding with [3H]5-CT. As to conditions: rat 5-HT7, HEK-293 membranes. On the procedure:
Receptor binding was performed using membrane fractions prepared from the HEK-293 cell line recombinantly expressing rat 5-HT7 receptors (NCBI accession NM_022938). Compound affinity for the rat 5-HT7 receptor subtype was evaluated by competitive radioligand binding assays using 5-carboxamido[^3H]tryptamine ([^3H]5-CT) (Amersham Biosciences, cat. 90000403) detection. HitHunter™ cAMP assays are in-vitro based competitive immunoassays. The assay was performed on the HEK-293 cell line stably transfected with r5-HT7 receptor. Cells were pre-incubated with test compounds for 10 minutes. For antagonist testing, the cells were then challenged with 100 nM 5-CT for 20 minutes. Cells were then lysed and cAMP measured according to manufacturers protocol (Amersham, cat. NET791250UC) or [^3H]mesulergine (Amersham, cat. TRK1041). The assay was performed on membranes prepared from HEK-293 cells stably transfected with h5-HT6. Following centrifugation, membranes were resuspended and incubated for 60 min at room temperature with 1.7 nM [^3H]LSD in the presence of increasing concentration of test compounds. Nonspecific binding was defined in the presence of 10 μM clozapine (Tocris, cat. TRK1068). Homogenized HEK-293 membranes expressing the human SERT were incubated in 50 mM Tris-HCl (pH 7.5), 120 mM NaCl, 5 mM KCl with [^3H]-citalopram (3 nM) with or without test compounds. Nonspecific binding was determined in the presence of 10 μM fluoxetine. Radioactivity readouts and Ki values were performed as previously described for r5-HT7. […] Compounds were assayed in their free form or as salts, as indicated in the Examples section above.
Consider `Cc1cccc(C(=O)c2ccc(Br)cc2OC2CNC2)c1` [Example 284, [2-(Azetidin-3-yloxy)-4-bromo-phenyl]-m-tolyl-methanone], for which the pKi was 7.72. As to `CC(C)c1noc(COc2ccc(Cl)cc2OC2CNC2)n1` [Example 242, 5-[2-(Azetidin-3-yloxy)-4-chloro-phenoxymethyl]-3-isopropyl-[1,2,4]oxadiazole hydrochloride], the negative-log Ki (pKi) is 6.56.

Consider `Clc1cccc(COc2ccc(Cl)cc2COC2CNC2)c1` [Example 238, 3-[5-Chloro-2-(3-chloro-benzyloxy)-benzyloxy]-azetidine], for which the negative-log Ki (pKi) is 6.70. The same measure, in the same setting: the same measure for `Clc1ccc(OC2CNC2)c(OC2CNC2)c1` [Example 226]: 6.08. `Cc1ccccc1C(=O)c1ccc(Br)cc1OC1CNC1` [Example 285, [2-(Azetidin-3-yloxy)-4-bromo-phenyl]-o-tolyl-methanone] showed a pKi of 5.52. Still for that read-out and setting: the same measure for `O=C(c1cccc(Cl)c1)c1ccc(Cl)cc1OC1CNC1` [Example 298, [2-(Azetidin-3-yloxy)-4-chloro-phenyl]-(3-chloro-phenyl)-methanone]: 6.99; for `CC(Oc1cc(Br)ccc1OCc1cccc(Cl)c1)C1(O)CNC1` (centres unmarked) [Example 236, 3-[1-[5-Bromo-2-(3-chloro-benzyloxy)-phenoxy]-ethyl]-azetidin-3-ol]: 6.08; for `CCC1(Oc2cc(Br)ccc2OCc2cccc(Cl)c2)CNC1` [Example 213, 3-[5-Bromo-2-(3-chloro-benzyloxy)-phenoxy]-3-ethyl-azetidine]: 5.34. The same measure, in the same setting: to `Cc1ccccc1Oc1ccc(Cl)cc1OC1CNC1` [Example 259, 3-(5-Chloro-2-o-tolyloxy-phenoxy)-azetidine trifluoroacetate] belongs 6.34. With `Clc1cccc(COc2ccc(Br)cc2COC2CNC2)c1` [Example 237, 3-[5-Bromo-2-(3-chloro-benzyloxy)-benzyloxy]-azetidine], the pKi was 6.92.

Consider `COc1ccc(C(=O)c2ccc(Br)cc2OC2CNC2)cc1` [Example 291, [2-(Azetidin-3-yloxy)-4-bromo-phenyl]-(4-methoxy-phenyl)-methanone], for which the pKi is 7.47. Regarding `Clc1ccc(OC2CN(C(c3ccccc3)c3ccccc3)C2)c(OC2CNC2)c1` [Example 225, 3-[5-Chloro-2-(1-benzhydryl-azetidin-3-ol)-phenoxy]-azetidine], the negative-log Ki (pKi) was 5.57.

Staying with this test, now noted: rat 5-HT7 receptor, HEK-293 membranes.
Regarding `ON=C1c2ccccc2CC1Oc1ccc(Cl)cc1OC1CNC1` (centres unmarked) [Example 179, 2-[2-(Azetidin-3-yloxy)-4-chloro-phenoxy]-indan-1-one oxime], the pKi was 6.44. On the same count and under the same terms, the same measure for `OCC(Oc1ccc(Cl)cc1OC1CNC1)c1ccccc1` (centres unmarked) [Example 148, 2-[2-(Azetidin-3-yloxy)-4-chloro-phenoxy]-2-phenyl-ethanol]: 5.70; for `Clc1cccc(COc2ccc(Cl)cc2O[C@@H]2CCNC2)c1` [Example 58, (R)-3-[5-Chloro-2-(3-chloro-benzyloxy)-phenoxy]-pyrrolidine]: 6.92; for `CC(Oc1ccc(Cl)cc1OC1CNC1)c1ccc(F)c(F)c1` (racemic) [Example 128, (±)-3-[5-Chloro-2-[1-(3,4-difluoro-phenyl)-ethoxy]-phenoxy]-azetidine trifluoroacetate]: 6.90.

As for `CC(Oc1ccc(Cl)cc1OC1CNC1)c1ccc(Cl)c(Cl)c1` (racemic) [Example 126, (±)-3-[5-Chloro-2-[1-(3,4-dichloro-phenyl)-ethoxy]-phenoxy]-azetidine], the pKi was 7.42. Same read-out and setting: the same measure for `CCCN1CC(Oc2cc(F)ccc2OCc2cccc(Cl)c2)C1` [Example 206, 3-[2-(3-Chloro-benzyloxy)-5-fluoro-phenoxy]-1-propyl-azetidine]: 7.68; for `CCC(Oc1ccc(Cl)cc1OC1CCNCC1)c1cccc(C(F)(F)F)c1` (racemic) [Example 141, (±)-4-[5-Chloro-2-[1-(3-trifluoromethyl-phenyl)-propoxy]-phenoxy]-piperidine]: 6.35; for `Clc1ccc(OCC2CCOC2)c(OC2CNC2)c1` (centres unmarked) [Example 163, 3-[5-Chloro-2-(tetrahydro-furan-3-ylmethoxy)-phenoxy]-azetidine]: 6.12. For the compound `CC(Oc1ccc(Cl)cc1OC1CNC1)c1cccc(SC(F)(F)F)c1` (racemic) [Example 120, (±)-3-[5-Chloro-2-[1-(3-trifluoromethylsulfanyl-phenyl)-ethoxy]-phenoxy]-azetidine], the pKi is 7.40. The same measure, in the same setting: to `Clc1ccc(OCc2ccccc2)c(OC2CCCNC2)c1` (racemic) [Example 70, (±)-3-(2-Benzyloxy-5-chloro-phenoxy)-piperidine] belongs 6.76; to `CC(Oc1ccc(Cl)cc1OC1CNC1)c1cncs1` (centres unmarked) [Example 132, 5-[1-[2-(Azetidin-3-yloxy)-4-chloro-phenoxy]-ethyl]-thiazole], 6.34; to `Clc1ccc(OCc2cnco2)c(OC2CNC2)c1` [Example 87, 5-[2-(Azetidin-3-yloxy)-4-chloro-phenoxymethyl]-oxazole], 6.62.

The compound `O=C(O)C(Oc1ccc(Cl)cc1OC1CNC1)c1ccccc1` (centres unmarked) [Example 149, [2-(Azetidin-3-yloxy)-4-chloro-phenoxy]-phenyl-acetic acid hydrochloride] showed a pKi of under 5.00. The same measure, in the same setting: the same measure for `Clc1cccc(COc2cc(Br)ccc2OC2CN(C3CCC3)C2)c1` [Example 23, 3-[4-Bromo-2-(3-chloro-benzyloxy)-phenoxy]-1-cyclobutyl-azetidine]: 6.92. `CC(Oc1ccc(Cl)cc1OC1CNC1)c1cc(Cl)ccc1Cl` (racemic) [Example 129, (±)-3-[5-Chloro-2-[1-(2,5-dichloro-phenyl)-ethoxy]-phenoxy]-azetidine trifluoroacetate] showed a pKi of 6.04. On the same count and under the same terms, to `CN1CCC(Oc2cc(Br)ccc2OCc2ccccc2)C1` (racemic) [Example 98, (±)-3-(2-Benzyloxy-5-bromo-phenoxy)-1-methyl-pyrrolidine] belongs 7.64.

With `CN1CC[C@@H](Oc2cc(Cl)ccc2OCc2ccccc2Cl)C1` [Example 61, (R)-3-[5-Chloro-2-(2-chloro-benzyloxy)-phenoxy]-1-methyl-pyrrolidine], the pKi was 7.44. Still for that read-out and setting: to `CC(Oc1ccc(Cl)cc1OC1CNC1)c1cc(F)cc(C(F)(F)F)c1` (racemic) [Example 119, (±)-3-[5-Chloro-2-[1-(3-fluoro-5-trifluoromethyl-phenyl)-ethoxy]-phenoxy]-azetidine] belongs 6.54; to `CC(Oc1ccc(Cl)cc1OC1CNC1)c1cccc(C#N)c1` (racemic) [Example 125, (±)-3-[1-[2-(Azetidin-3-yloxy)-4-chloro-phenoxy]-ethyl]-benzonitrile], 6.98; to `FC(F)(F)c1cccc(COc2ccc(Cl)cc2OC2CCCNC2)c1` (racemic) [Example 71, (±)-3-[5-Chloro-2-(3-trifluoromethyl-benzyloxy)-phenoxy]-piperidine], 6.84. On the same count and under the same terms, the same measure for `Fc1ccc(OCc2cccc(Cl)c2)c(OC2CNC2)c1` [Example 202, 3-[2-(3-Chloro-benzyloxy)-5-fluoro-phenoxy]-azetidine hydrochloride]: 7.18; for `CCOC(=O)c1cc(COc2ccc(Cl)cc2OC2CNC2)oc1C(F)(F)F` [Example 76, 5-[2-(Azetidin-3-yloxy)-4-chloro-phenoxymethyl]-2-trifluoromethyl-furan-3-carboxylic acid ethyl ester]: 5.30. Same read-out and setting: the same measure for `O=C(O)c1cc(COc2ccc(Cl)cc2OC2CNC2)oc1C(F)(F)F` [Example 75, 5-[2-(Azetidin-3-yloxy)-4-chloro-phenoxymethyl]-2-trifluoromethyl-furan-3-carboxylic acid trifluoroacetate]: 5.05. `Clc1cccc(C2(COc3ccc(Cl)cc3OC3CNC3)CCC2)c1` [Example 189, 3-[5-Chloro-2-[1-(3-chloro-phenyl)-cyclobutylmethoxy]-phenoxy]-azetidine] had a pKi of 6.86. The same measure, in the same setting: to `CON=C1c2ccccc2CC1Oc1ccc(Cl)cc1OC1CNC1` (centres unmarked) [Example 180, 2-[2-(Azetidin-3-yloxy)-4-chloro-phenoxy]-indan-1-one O-methyl-oxime] belongs 6.09; to `CC(Oc1ccc(Cl)cc1OC1CNC1)c1ccccc1C(F)(F)F` (racemic) [Example 122, (±)-3-[5-Chloro-2-[1-(2-trifluoromethyl-phenyl)-ethoxy]-phenoxy]-azetidine], 6.68.

The compound `FC(F)(F)Oc1ccc(COc2ccc(Br)cc2OC2CNC2)cc1Cl` [Example 11, 3-[5-Bromo-2-(3-chloro-4-trifluoromethoxy-benzyloxy)-phenoxy]-azetidine] gave a negative logarithm of the Ki (pKi) of 7.28. The same measure, in the same setting: the same measure for `Clc1ccc(OC2CCCC2)c(OC2CNC2)c1` [Example 72, 3-(5-Chloro-2-cyclopentyloxy-phenoxy)-azetidine trifluoroacetate]: 6.57; for `CCOC(=O)c1ccc(COc2ccc(Cl)cc2OC2CNC2)o1` [Example 55, 5-[2-(Azetidin-3-yloxy)-4-chloro-phenoxymethyl]-furan-2-carboxylic acid ethyl ester]: 6.77.
